What was measured:
MCF7 = assay: Antiproliferative activity against human MCF7 cells after 72 hrs by MTT assay; assay type: functional, cell-based; settings: MCF7, 72 h
BJ = assay: Antiproliferative activity against human BJ cells after 72 hrs by MTT assay; assay type: cell-based
HeLa = assay: Antiproliferative activity against human HeLa cells after 72 hrs by MTT assay; assay type: functional, cell-based
SK-BR-3 = assay: Antiproliferative activity against human SK-BR-3 cells after 72 hrs by MTT assay; assay type: functional, cell-based; settings: SK-BR-3, 72 h
SW-620 = assay: Antiproliferative activity against human SW620 cells after 72 hrs by MTT assay; assay type: functional, cell-based; settings: SW-620, 72 h
MIA PaCa-2 = assay: Antiproliferative activity against human MIAPaCa2 cells after 72 hrs by MTT assay; assay type: functional, cell-based; settings: MIA PaCa-2, 72 h

Structure (SMILES) | IC50 (MCF7) | IC50 (HeLa) | IC50 (SK-BR-3) | IC50 (SW-620) | IC50 (MIA PaCa-2) | IC50 (BJ)
c1cc2nc(-c3cncc(-c4nc5ccc(C6=NCCN6)cc5s4)c3)sc2cc1C1=NCCN1 | 0.9 µM | 0.3 µM | 0.5 µM | 0.42 µM | 6.6 µM | 0.16 µM
c1cc2nc(-c3ccc(-c4nc5ccc(C6=NCCN6)cc5s4)nc3)sc2cc1C1=NCCN1 | 4.4 µM | 3.4 µM | 3.4 µM | 2.8 µM | 4.4 µM | 0.34 µM
c1cc2nc(-c3cnc(-c4nc5ccc(C6=NCCN6)cc5s4)cn3)sc2cc1C1=NCCN1 | 1.2 µM | 1.9 µM | 0.9 µM | 1.8 µM | 5.1 µM | 0.07 µM

Now from value to compound, other results behind:

IC50 (MCF7) | IC50 (HeLa) | IC50 (SK-BR-3) | IC50 (SW-620) | IC50 (MIA PaCa-2) | Structure (SMILES) | IC50 (BJ)
78.9 µM | > 100 µM | > 100 µM | > 100 µM | 61.1 µM | N=C(N)c1ccc2nc(-c3ccnc(-c4nc5ccc(C(=N)N)cc5s4)c3)sc2c1 | 2.92 µM
> 100 µM | > 100 µM | > 100 µM | > 100 µM | 86.7 µM | N=C(N)c1ccc2nc(-c3cncc(-c4nc5ccc(C(=N)N)cc5s4)c3)sc2c1 | 15 µM

— ChEMBL document CHEMBL2062361, “Synthesis and antiproliferative evaluation of some new amidino-substituted bis-benzothiazolyl-pyridines and pyrazine” (Eur J Med Chem, 2012)
